The nature of series [1]: LNP characterization (diameter, PDI, % EE). To be noted: LNP formulated with the named lipid; for EE %: Ribogreen assay; for Diameter (nm) / PDI: dynamic light scattering. The class given is physicochemical. As to the method:
Representative LNP Characterization Data. The diameter, polydispersity index (PDI), and % EE were characterized for various LNPs.
LNP characterization. Concentration of mRNA was determined using a Quant-IT Ribogreen assay. LNPs were diluted in either native TE buffer (ThermoFisher) or denaturing TE buffer+0.5% Triton-X 100 (Millipore-Sigma) to measure the “free” and total mRNA, respectively. 100 μL of these unknowns were added to a black 96-well plate. Separately, standard curves ranging from 2 ng/μL-0 ng/μL were prepared in each of these buffers and 100 μL were added to the same 96-well plate. Finally, Quant-IT Ribogreen reagent (ThermoFisher) was diluted 1:200 in TE buffer and 100 μL of this solution was added to each of the wells. The well plate was then mixed at 400 rpm with a plate shaker for 5 mins. and the fluorescence was read with an excitation/emission of 485/535. LNPs were measured in triplicate and standards were measured in duplicate. RNA concentration in each of the unknown wells was calculated by fitting the standard curves with a linear trendline. Encapsulation efficiency (% EE) was calculated according to: […]
Dynamic light scattering and zeta potential measurements were performed using a Malvern Zetasizer system. The reported diameter and PDI were obtained from the cumulants fit of the autocorrelation function. Zeta potential measurements were performed in 0.1×PBS, pH 7.4 and calculated using the Smoluchowski approximation.

Series [2] deals with mice. To be noted: for protein expression relative to MD-1: in vitro and in vivo via intramuscular administration (FIGS. 6A-6B). On the procedure: Evaluation of the LNPs via intramuscular injection. The in vivo potency of the ionizable lipids was screened through intramuscular injection of LNPs loaded with mRNA encoding firefly luciferase protein. These LNPs were formulated with a molar composition of (35:16:46.5:2.5) using one of the synthesized ionizable lipids, DOPE as a helper lipid, cholesterol, and DMPE-PEG respectively. mRNA-loaded LNPs were intramuscularly administered in mice at a dose of 1 μg, and expression of luciferase protein was monitored at 6 hours via IVIS bioluminescent imaging (FIG. 3). […] Without wishing to be bound by theory, increased levels of protein expression may enhance the response to vaccination.
In Vitro and In Vivo Screening of AMG Lipid Library. Following synthesis, the mRNA delivery efficacy of the AMG lipids was evaluated through both in vitro and in vivo screens. To screen the first generation of AMG lipids (FIGS. 11B and 11C), firefly luciferase (FLuc) mRNA was encapsulated into LNPs using a previously reported formulation containing ionizable lipid, 1,2-dioleoyl-sn-glycero-3-phosphoethanolamine (DOPE), cholesterol, and 1,2-dimyristoyl-rac-glycero-3-methoxypolyethylene glycol-2000 (DMG-PEG).^19 C2C12 myoblast cells were treated with these LNPs and FLuc expression was evaluated at 24 hrs. (FIG. 16). […] Each of these batches was then injected IM into the quadriceps of mice, and expression was characterized via IVIS imaging (Screen 1, FIG. 11E).
AMG lipids for enhanced mRNA delivery and improved tolerability. A rational design approach was used to further vary the ionizable lipid structure to enhance the mRNA delivery and immunogenicity. […] The lipid tail structure was varied to promote efficient LNP self-assembly while simultaneously promoting endosomal membrane disruption.^18 Monounsaturated (G41-G44) or fully saturated (GC12-GC18) lipid tails were developed. […] Without wishing to be bound by any particular theory, tail length may impact membrane fusion and endosomal escape.^10,11
Next, the headgroup was further modified to further improve delivery. Headgroups play a multifunctional role including enhancing LNP-mRNA interactions, promoting membrane-LNP fusion and endosomal escape which all contribute to mRNA delivery.^23 A series of similar aza-crown ethers were used to further investigate structure-activity relationship and enhance mRNA delivery. These headgroups featured between three and eight nitrogens linked by varying length of methylene chains. Each of these headgroups were reacted with tail G41 to synthesize a next generation of AMG lipids, which were then formulated with FLuc mRNA and evaluated for mRNA delivery following IM administration in mice (FIG. 12B).

Each structure is given as a SMILES string.

Regarding `CCC/C=C\CCCCCCC(=O)OCC(O)CN1CCN(CC(O)COC(=O)CCCCCC/C=C\CCC)CCN(CC(O)COC(=O)CCCCCC/C=C\CCC)CCN(CC(O)COC(=O)CCCCCC/C=C\CCC)CCN(CC(O)COC(=O)CCCCCC/C=C\CCC)CCN(CC(O)COC(=O)CCCCCC/C=C\CCC)CC1` (stereo not shown) [AMG1549], in series [1], the EE % worked out at 56.9%, the “Diameter (nm)” value came out at 100.4 nm and the PDI is recorded as 0.234. For the same compound, the “protein expression relative to MD-1” value in series [2] is reported as “superseded or matched MD-1”.
`CCCC/C=C\C/C=C\CCC(=O)OCC(O)CN1CCN(CC(O)COC(=O)CC/C=C\C/C=C\CCCC)CCN(CC(O)COC(=O)CC/C=C\C/C=C\CCCC)CCN(CC(O)COC(=O)CC/C=C\C/C=C\CCCC)CCN(CC(O)COC(=O)CC/C=C\C/C=C\CCCC)CCN(CC(O)COC(=O)CC/C=C\C/C=C\CCCC)CC1` (stereo not shown) [AMG1553]: in series [1], the EE % is given as 89.0186%, the “Diameter (nm)” value worked out at 94 nm and the PDI was 0.09. Moreover, the “protein expression relative to MD-1” value in series [2] is listed as “superseded or matched MD-1”.
As to `C/C=C\CCCCCCCCC(=O)OCC(O)CN1CCN(CC(O)COC(=O)CCCCCCCC/C=C\C)CCN(CC(O)COC(=O)CCCCCCCC/C=C\C)CCN(CC(O)COC(=O)CCCCCCCC/C=C\C)CCN(CC(O)COC(=O)CCCCCCCC/C=C\C)CCN(CC(O)COC(=O)CCCCCCCC/C=C\C)CC1` (stereo not shown) [AMG1551], in series [1], the EE % is on record as 67.41%, the “Diameter (nm)” value is 77 nm and the PDI stood at 0.145. For the same compound, in series [2] (IM, 0.1 μg, 6 hours), the “in vivo mRNA delivery of alkene walking tail derivatives” value was “loss in potency”.
In the case of `CCCCCC/C=C\CCCCOC(=O)CCN1CCN(CCC(=O)OCCCC/C=C\CCCCCC)CCN(CCC(=O)OCCCC/C=C\CCCCCC)CCN(CCC(=O)OCCCC/C=C\CCCCCC)CCN(CCC(=O)OCCCC/C=C\CCCCCC)CCN(CCC(=O)OCCCC/C=C\CCCCCC)CC1` [AMG1559], in series [2] (IM, analogue without β-amino alcohol), the “fold drop in transfection versus AMG1541” value is recorded as 34 fold.
With `CCCCC/C=C\CCCCC(=O)OCC(O)CN1CCN(CC(O)COC(=O)CCCC/C=C\CCCCC)CCN(CC(O)COC(=O)CCCC/C=C\CCCCC)CCN(CC(O)COC(=O)CCCC/C=C\CCCCC)CCN(CC(O)COC(=O)CCCC/C=C\CCCCC)CCN(CC(O)COC(=O)CCCC/C=C\CCCCC)CC1` (stereo not shown) [AMG1547], in series [1], the EE % was 85.33%, the “Diameter (nm)” value is 100 nm and the PDI is recorded as 0.142. Further, in series [2], the “protein expression relative to MD-1” value is given as “superseded or matched MD-1”.
Regarding `CCCCCCCCC=CCCCCCCCC(=O)OCC(O)CN1CCCN(CC(O)COC(=O)CCCCCCCC=CCCCCCCCC)CCN(CC(O)COC(=O)CCCCCCCC=CCCCCCCCC)CCCN(CC(O)COC(=O)CCCCCCCC=CCCCCCCCC)CC1` (mixture of isomers) [AMG104], in series [2] (Screen 3, IM, 1 μg, imaged 24 hours post injection), the “fold higher mRNA expression than the next best lipid AMG1010” value is listed as roughly 5 fold.
In the case of `C/C=C\C/C=C\CCCCCC(=O)OCC(O)CN1CCN(CC(O)COC(=O)CCCCC/C=C\C/C=C\C)CCN(CC(O)COC(=O)CCCCC/C=C\C/C=C\C)CCN(CC(O)COC(=O)CCCCC/C=C\C/C=C\C)CCN(CC(O)COC(=O)CCCCC/C=C\C/C=C\C)CCN(CC(O)COC(=O)CCCCC/C=C\C/C=C\C)CC1` (stereo not shown) [AMG1556], in series [1], the EE % stood at 85.76%, the “Diameter (nm)” value was found to be 96 nm and the PDI was found to be 0.121. In series [2], the “protein expression relative to MD-1” value is “superseded or matched MD-1”.
On to `CCC/C=C\C/C=C\CCCC(=O)OCC(O)CN1CCN(CC(O)COC(=O)CCC/C=C\C/C=C\CCC)CCN(CC(O)COC(=O)CCC/C=C\C/C=C\CCC)CCN(CC(O)COC(=O)CCC/C=C\C/C=C\CCC)CCN(CC(O)COC(=O)CCC/C=C\C/C=C\CCC)CCN(CC(O)COC(=O)CCC/C=C\C/C=C\CCC)CC1` (stereo not shown) [AMG1554], for which, in series [1], the EE % is given as 91.711%, the “Diameter (nm)” value stood at 105 nm and the PDI was determined as 0.1. Besides, the “protein expression relative to MD-1” value in series [2] is “superseded or matched MD-1”.
With `CCCCCC/C=C\CCCCCCCC(=O)OCC(O)CN1CCCN(CC(O)COC(=O)CCCCCCC/C=C\CCCCCC)CCN(CC(O)COC(=O)CCCCCCC/C=C\CCCCCC)CCCN(CC(O)COC(=O)CCCCCCC/C=C\CCCCCC)CC1` (stereo not shown) [AMG1043], in series [1], the “Diameter (nm)” value stood at 79.27 nm and the PDI is listed as 0.169.

(Values after patent publication US20250205158A1, “BIODEGRADABLE LIPIDS AND FORMULATIONS FOR DELIVERY OF MRNA” (Massachusetts Institute of Technology, priority 2023, published 2025).)
